Measurements as given in ChEMBL document CHEMBL1201862, “PubChem BioAssay data set” (2004).
Activity calls are given as the source filed them.

Key:
HEK293 [1] = assay: cells; format: functional, cell-based; details: Homo sapiens
[2] = reduction of Shn3 3'UTR-driven luciferase in osteoblasts – cell-based, Clone20 osteoblasts, firefly luciferase, cherry-picked, dose response (AID 624132); format: functional;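 further: firefly luciferase luminescence from reporter carrying the Shn3 3'UTR in osteoblasts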
[3] = non-specific 3'UTR reporter inhibition in Clone20-Shn3RL – cell-based, Renilla luciferase, cherry-picked, counter-screen for Shn3 inhibitor project, dose response (AID 624133); format: functional
[4] = loss of viability in HepG2 cells – cell-based, CellTiter-Glo, cherry-picked, cytotoxicity control for Shn3 inhibitor project, dose response (AID 624134); format: functional
INS1 = assay: INS-1E survival protection against cytokine death – cell-based, luminescence, retest, dose response (AID 449756); format: functional; details: Rattus norvegicus;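 further: cell death triggered by IL-1 beta plus TNF-alpha plus IFN-gamma mixture; protective hits raise ATP signal compared with cytokine alone wells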
HEK293 [5] = assay: inhibition of NOD1-driven NF-kB reporter – cell-based, luminescence, uHTS, primary screen (AID 1578); format: functional; details: Homo sapiens
[6] = Trypanosoma cruzi growth suppression in host cells – NIH3T3 host cells, beta-gal luminescence, confirmation (AID 2044); format: functional, cell-based;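 further: intracellular parasites grown in NIH/3T3 mouse fibroblasts as host cells; luminescent beta-galactosidase reporter signal from transgenic T. cruzi replicating inside host cells; inhibitors lower the luminescence signal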
[7] = molecular target: Nucleotide-binding oligomerization domain-containing protein 2 (Homo sapiens, UniProt Q9HC29); assay: inhibition of NOD2-driven NF-kB reporter – cell-based, luminescence, uHTS, HEK293 (AID 1566); format: functional
HEK293 [8] = assay: NOD2 signaling inhibitors in MDP-stimulated cells, cell-based, uHTS, luminescence (AID 2001); format: functional; details: Homo sapiens
HEK293 [9] = assay: cells; format: functional, cell-based; details: Homo sapiens; remark: listed apart in the source
HEK293 [10] = assay: cells; format: functional, cell-based; details: Homo sapiens; remark: listed apart in the source
HEK293 [11] = assay: EBV LMP1 TES2 canonical NF-kB signalling blockers – cell-based, HEK293, luciferase, cherry-pick, dose response (AID 588343); format: functional; details: Homo sapiens
[12] = molecular target: T1, Kappa-type opioid receptor (Homo sapiens, UniProt P41145); format: functional
[13] = mammalian cell viability loss – Alamar Blue, dry powder, cytotoxicity control for antifungal single agent project, dose response (AID 602188); format: functional, cell-based
[14] = HEK-293T viability loss after treatment – luminescence, T-cell screen hits, cytotoxicity control for TCR NF-kB inhibitor project, dose response (AID 489026); format: functional, cell-based;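 further: cells exposed to compound about 14 hours before the viability readout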
[15] = NIH3T3 cell viability loss – ATP luminescence, mouse fibroblasts, counter-screen, dose response (AID 2010); format: functional, cell-based;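 further: cells exposed to compound for about 90 hours before reading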
[16] = molecular target: T1, Kappa-type opioid receptor; format: functional; remark: listed apart in the source
[17] = molecular target: T2, Heat shock factor protein 1 (Mus musculus, UniProt P38532); assay: enhancement of HSF1-driven luciferase signal – cell-based, NIH3T3, luminescence, dose retest, confirmation (AID 435004); format: functional;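 further: stress induced by proteasome inhibitor MG132 added 30 min after compound; luciferase reporter driven by HSF1 response element in NIH3T3 cells; actives raise luminescence as potentiators of the MG132 stress response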
T2 sequence (P38532 whole entry): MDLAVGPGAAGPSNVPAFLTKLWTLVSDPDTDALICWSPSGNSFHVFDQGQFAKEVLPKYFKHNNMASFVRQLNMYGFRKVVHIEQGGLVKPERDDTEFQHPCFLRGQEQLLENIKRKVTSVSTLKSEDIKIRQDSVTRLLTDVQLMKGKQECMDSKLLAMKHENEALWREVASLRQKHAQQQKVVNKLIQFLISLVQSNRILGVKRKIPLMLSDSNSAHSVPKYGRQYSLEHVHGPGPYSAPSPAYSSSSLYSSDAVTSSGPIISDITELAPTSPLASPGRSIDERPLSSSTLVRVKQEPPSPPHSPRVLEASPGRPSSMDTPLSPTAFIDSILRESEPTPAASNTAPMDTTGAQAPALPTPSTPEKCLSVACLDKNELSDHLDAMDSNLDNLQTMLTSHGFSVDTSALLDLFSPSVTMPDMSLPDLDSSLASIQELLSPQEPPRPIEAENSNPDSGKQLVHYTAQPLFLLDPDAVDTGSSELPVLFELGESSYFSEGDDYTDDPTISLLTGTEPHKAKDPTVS

Beta-galactosidase = Beta-galactosidase (Escherichia coli, UniProt Q8VNN2); format: functional
[18] = molecular target: Benomyl/methotrexate resistance protein (Candida albicans, UniProt P28873); assay: Candida albicans Mdr1 pump inhibition curves – singleplex, Cherry Pick1 hits, dose response (AID 588608); format: functional
Prothrombin = Prothrombin (Bos taurus, UniProt P00735); assay: thrombin protease inhibitors – biochemical, fluorescence polarization, uHTS hits, dose response (AID 602369); format: functional
[19] = molecular target: T3, Apoptotic protease-activating factor 1 (Homo sapiens, UniProt O14727); format: functional
T3 sequence (O14727 whole entry): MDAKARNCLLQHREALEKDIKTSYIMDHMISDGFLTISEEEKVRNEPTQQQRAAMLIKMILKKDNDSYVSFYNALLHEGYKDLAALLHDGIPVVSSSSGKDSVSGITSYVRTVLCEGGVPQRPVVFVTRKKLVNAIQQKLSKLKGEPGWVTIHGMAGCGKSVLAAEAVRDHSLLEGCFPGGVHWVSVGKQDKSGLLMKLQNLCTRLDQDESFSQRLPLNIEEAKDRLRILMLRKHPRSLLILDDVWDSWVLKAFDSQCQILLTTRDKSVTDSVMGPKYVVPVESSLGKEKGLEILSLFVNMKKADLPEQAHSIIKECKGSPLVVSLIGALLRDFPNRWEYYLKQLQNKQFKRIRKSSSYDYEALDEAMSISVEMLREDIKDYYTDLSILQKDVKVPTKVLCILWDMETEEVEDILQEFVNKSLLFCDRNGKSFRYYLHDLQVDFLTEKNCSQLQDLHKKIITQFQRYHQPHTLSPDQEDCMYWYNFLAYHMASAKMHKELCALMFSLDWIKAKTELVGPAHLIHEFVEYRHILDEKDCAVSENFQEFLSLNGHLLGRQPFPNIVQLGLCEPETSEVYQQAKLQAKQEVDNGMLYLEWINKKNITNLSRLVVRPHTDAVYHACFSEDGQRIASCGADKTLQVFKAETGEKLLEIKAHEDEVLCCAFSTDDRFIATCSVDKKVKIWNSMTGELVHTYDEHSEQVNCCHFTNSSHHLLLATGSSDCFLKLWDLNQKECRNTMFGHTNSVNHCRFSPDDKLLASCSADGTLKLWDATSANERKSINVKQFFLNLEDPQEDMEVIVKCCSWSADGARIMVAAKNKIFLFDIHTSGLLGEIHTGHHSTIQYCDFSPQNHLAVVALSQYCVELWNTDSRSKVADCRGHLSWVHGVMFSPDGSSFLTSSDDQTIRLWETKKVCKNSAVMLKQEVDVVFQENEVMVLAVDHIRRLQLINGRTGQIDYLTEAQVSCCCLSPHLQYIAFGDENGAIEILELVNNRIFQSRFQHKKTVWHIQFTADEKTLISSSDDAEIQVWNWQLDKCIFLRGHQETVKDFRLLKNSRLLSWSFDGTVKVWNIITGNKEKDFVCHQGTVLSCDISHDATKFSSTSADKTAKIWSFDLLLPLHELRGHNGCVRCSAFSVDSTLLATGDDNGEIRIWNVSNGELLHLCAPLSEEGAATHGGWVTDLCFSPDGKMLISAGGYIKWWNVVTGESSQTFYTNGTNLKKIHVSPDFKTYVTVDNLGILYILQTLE

[20] = molecular target: T4, DNA repair protein RAD52 homolog (Homo sapiens, UniProt P43351); format: functional, biochemical
T4 sequence (P43351 whole entry): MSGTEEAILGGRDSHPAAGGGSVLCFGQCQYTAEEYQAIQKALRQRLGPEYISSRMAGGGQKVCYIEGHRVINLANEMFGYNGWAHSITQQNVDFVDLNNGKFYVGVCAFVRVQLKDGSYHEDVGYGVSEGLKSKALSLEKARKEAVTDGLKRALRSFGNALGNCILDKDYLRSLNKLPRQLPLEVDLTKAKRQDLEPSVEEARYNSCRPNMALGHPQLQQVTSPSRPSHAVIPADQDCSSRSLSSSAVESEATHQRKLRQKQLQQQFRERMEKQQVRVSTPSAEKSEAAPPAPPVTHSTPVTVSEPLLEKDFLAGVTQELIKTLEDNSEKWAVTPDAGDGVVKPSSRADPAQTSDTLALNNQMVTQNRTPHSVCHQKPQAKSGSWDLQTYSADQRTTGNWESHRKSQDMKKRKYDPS

[21] = alpha-synuclein stem-loop luciferase translation blockers – H4 neuroglioma cells, luminescence, confirmation (AID 1988); format: functional, cell-based
[22] = molecular target: Heat shock protein HSP 90-alpha (Homo sapiens, UniProt P07900); format: functional, organism-based
Bcl-2-related protein A1 = molecular target: T5, Bcl-2-related protein A1 (Mus musculus, UniProt Q07440); format: functional;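 further: confirmatory dose–response counterscreen on Bfl-1, used to check hits from a UBC13 polyubiquitin inhibitor campaign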
T5 sequence (Q07440 whole entry): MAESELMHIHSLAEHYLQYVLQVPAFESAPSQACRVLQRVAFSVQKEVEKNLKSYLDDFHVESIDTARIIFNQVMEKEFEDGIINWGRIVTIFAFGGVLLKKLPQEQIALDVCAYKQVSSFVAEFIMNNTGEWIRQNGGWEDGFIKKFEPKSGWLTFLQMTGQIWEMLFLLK

[23] = luciferase reporter signal suppression in cells – H4 neuroglioma cells, luminescence, dose response (AID 1990); format: functional, cell-based
[24] = molecular target: T6, Ubiquitin-conjugating enzyme E2 N (Homo sapiens, UniProt P61088); format: functional
T6 sequence (P61088 whole entry): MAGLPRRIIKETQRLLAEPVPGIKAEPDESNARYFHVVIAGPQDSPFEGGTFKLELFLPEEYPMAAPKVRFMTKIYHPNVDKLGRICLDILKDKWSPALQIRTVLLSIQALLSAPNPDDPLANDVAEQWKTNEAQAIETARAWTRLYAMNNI

[25] = molecular target: 72 kDa type IV collagenase (Homo sapiens, UniProt P08253); assay: Dose Response validation of uHTS RPN11 inhibitor hits using a MMP-2 Fluorescence assay.; format: functional
[26] = molecular target: T6, Ubiquitin-conjugating enzyme E2 N; format: functional; remark: listed apart in the source
[27] = molecular target: 26S proteasome non-ATPase regulatory subunit 14 (Homo sapiens, UniProt O00487); assay: inhibition of proteasome subunit RPN11 – biochemical, fluorescence polarization, uHTS hits, confirmation (AID 602368); format: functional
[28] = molecular target: Melanin-concentrating hormone receptor 1 (Homo sapiens, UniProt Q99705); assay: Late-stage fluorescence-based counterscreen for antagonists of the G-protein coupled receptor 7 (GPR7): cell-based dose response assay to identify antagonists of the melanin-concentrating hormone receptor 1 (MCHR1) Set 5.; format: functional
[29] = molecular target: T7, Neuropeptides B/W receptor type 1 (Homo sapiens, UniProt P48145); assay: human NPBW1 receptor blockade, IC50 – cell-based, fluorescence, dose response, set 5, late-stage follow-up (AID 588566); format: functional
T7 sequence (P48145 whole entry): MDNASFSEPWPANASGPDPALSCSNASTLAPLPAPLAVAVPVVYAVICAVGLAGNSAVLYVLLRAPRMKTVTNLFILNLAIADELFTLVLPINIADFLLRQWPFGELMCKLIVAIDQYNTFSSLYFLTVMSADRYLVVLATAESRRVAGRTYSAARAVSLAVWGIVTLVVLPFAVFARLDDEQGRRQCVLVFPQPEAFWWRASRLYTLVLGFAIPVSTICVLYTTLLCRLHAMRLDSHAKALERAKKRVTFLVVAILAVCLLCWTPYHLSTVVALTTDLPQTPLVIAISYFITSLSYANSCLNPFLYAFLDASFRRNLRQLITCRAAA

T1 sequence (P41145 whole entry): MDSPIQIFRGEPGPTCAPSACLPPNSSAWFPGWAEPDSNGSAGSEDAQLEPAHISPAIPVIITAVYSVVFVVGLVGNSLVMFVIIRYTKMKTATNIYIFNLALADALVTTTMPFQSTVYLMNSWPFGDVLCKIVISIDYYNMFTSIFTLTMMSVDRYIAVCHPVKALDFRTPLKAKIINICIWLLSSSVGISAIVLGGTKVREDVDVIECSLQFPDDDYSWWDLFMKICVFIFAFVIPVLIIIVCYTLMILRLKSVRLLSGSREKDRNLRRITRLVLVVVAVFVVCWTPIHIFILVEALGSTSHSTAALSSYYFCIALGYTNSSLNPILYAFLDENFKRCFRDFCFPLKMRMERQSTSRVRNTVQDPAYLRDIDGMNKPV
Chain of Melanin-concentrating hormone receptor 1 (Q99705 whole entry): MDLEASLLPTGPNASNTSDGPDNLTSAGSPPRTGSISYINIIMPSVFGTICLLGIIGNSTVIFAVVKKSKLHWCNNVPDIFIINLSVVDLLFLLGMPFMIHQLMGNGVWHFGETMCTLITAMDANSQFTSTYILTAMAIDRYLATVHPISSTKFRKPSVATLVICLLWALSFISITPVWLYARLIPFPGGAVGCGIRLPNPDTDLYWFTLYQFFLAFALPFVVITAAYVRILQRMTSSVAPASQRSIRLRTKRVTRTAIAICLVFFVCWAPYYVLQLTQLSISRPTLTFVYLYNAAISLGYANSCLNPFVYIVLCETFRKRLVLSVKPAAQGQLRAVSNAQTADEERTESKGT
Chain of Beta-galactosidase (Q8VNN2 whole entry): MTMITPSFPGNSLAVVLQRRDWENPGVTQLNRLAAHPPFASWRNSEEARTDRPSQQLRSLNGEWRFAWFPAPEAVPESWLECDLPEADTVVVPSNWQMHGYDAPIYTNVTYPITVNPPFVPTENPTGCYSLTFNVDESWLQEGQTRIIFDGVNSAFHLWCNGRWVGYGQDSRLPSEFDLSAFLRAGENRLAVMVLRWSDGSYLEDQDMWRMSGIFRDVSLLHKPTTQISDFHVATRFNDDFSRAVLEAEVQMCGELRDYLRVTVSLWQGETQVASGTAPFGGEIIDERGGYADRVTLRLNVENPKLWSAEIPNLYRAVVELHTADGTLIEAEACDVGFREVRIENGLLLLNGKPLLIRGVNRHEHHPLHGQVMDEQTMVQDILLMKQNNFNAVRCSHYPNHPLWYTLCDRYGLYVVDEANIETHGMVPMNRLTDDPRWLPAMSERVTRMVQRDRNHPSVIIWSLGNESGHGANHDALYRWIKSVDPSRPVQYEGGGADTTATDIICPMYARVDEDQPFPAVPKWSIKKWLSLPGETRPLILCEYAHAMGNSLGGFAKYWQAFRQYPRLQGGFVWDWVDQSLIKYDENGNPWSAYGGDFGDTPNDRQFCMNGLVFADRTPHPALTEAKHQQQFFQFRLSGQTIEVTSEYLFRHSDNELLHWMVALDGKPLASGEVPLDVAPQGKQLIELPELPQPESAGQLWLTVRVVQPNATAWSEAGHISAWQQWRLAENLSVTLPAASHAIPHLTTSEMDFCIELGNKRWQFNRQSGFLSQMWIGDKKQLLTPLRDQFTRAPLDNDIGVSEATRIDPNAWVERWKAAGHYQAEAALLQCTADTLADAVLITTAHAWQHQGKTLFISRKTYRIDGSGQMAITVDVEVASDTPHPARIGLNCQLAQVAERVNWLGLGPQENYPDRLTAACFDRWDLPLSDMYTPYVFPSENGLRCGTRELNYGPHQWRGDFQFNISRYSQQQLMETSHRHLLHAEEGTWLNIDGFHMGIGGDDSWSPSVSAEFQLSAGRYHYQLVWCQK
Chain of 26S proteasome non-ATPase regulatory subunit 14 (O00487 whole entry): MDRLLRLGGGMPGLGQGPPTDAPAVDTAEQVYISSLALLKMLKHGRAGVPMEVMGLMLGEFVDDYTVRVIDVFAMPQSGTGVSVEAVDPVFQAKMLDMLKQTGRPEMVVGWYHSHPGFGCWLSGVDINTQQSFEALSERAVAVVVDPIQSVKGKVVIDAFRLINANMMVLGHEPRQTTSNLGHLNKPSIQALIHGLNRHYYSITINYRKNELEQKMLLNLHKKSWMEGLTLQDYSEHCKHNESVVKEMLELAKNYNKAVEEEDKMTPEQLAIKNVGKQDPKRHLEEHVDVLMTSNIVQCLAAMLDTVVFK
Chain of Nucleotide-binding oligomerization domain-containing protein 2 (Q9HC29 whole entry, the tested form may be a part): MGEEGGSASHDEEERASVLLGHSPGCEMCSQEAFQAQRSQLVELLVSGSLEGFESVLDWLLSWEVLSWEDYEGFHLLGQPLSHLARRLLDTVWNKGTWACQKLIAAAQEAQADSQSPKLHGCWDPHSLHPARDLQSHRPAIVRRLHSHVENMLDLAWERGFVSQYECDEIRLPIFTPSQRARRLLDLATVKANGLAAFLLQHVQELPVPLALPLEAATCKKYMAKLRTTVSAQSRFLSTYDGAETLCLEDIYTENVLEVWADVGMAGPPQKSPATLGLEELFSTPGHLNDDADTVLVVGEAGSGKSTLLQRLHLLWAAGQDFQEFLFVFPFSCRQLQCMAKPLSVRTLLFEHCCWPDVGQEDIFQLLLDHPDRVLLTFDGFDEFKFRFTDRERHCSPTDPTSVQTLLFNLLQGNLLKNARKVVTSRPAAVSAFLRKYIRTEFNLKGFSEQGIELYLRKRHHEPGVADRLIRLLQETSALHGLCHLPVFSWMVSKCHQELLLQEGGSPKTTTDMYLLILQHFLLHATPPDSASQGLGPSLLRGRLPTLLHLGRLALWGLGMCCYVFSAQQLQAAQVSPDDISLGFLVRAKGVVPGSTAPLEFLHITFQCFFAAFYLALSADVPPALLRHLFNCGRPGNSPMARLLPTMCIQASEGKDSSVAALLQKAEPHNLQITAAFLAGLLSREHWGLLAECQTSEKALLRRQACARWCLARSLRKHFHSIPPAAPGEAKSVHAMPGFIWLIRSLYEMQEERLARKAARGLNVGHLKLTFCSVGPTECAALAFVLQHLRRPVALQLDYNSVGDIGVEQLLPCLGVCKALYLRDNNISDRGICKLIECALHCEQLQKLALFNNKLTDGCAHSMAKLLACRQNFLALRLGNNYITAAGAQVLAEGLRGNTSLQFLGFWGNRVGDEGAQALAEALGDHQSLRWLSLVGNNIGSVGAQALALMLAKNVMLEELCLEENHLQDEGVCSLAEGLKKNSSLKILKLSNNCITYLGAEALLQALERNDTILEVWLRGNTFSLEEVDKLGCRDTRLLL
Chain of Benomyl/methotrexate resistance protein (P28873 whole entry): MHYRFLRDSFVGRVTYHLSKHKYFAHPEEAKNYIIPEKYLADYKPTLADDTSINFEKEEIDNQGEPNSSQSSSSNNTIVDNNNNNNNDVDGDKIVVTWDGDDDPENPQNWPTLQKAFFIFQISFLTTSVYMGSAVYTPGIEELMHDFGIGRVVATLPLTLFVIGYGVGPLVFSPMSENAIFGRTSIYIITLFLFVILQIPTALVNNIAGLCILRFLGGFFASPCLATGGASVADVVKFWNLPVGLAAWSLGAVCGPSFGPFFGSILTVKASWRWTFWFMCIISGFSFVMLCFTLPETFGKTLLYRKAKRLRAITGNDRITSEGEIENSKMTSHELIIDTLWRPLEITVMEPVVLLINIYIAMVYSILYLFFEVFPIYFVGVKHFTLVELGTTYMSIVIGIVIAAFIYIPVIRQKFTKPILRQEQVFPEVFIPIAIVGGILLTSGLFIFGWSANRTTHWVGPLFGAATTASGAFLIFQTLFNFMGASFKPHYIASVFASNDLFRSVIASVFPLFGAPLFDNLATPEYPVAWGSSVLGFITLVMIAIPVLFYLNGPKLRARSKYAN
Chain of 72 kDa type IV collagenase (P08253 whole entry): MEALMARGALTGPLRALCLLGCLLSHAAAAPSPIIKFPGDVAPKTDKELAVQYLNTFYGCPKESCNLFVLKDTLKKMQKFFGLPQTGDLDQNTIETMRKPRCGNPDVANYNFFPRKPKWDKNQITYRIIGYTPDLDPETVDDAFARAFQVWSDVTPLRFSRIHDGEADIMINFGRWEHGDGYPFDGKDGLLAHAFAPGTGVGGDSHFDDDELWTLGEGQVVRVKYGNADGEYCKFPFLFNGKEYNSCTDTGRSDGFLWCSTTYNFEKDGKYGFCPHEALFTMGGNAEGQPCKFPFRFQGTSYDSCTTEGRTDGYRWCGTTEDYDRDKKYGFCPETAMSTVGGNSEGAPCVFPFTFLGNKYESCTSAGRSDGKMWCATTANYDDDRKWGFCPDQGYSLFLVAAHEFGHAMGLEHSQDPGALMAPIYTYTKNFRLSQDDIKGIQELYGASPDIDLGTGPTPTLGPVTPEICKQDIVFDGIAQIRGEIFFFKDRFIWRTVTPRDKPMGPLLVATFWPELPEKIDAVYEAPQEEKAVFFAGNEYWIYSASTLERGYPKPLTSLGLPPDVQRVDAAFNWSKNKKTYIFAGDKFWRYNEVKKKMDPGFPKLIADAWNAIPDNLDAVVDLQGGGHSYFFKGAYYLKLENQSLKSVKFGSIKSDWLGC

Question: For O=C(Nc1nc(-c2ccccn2)cs1)c1ccc(Cl)s1, which IC50 (HEK293 [1]) is on record?
Answer: > 20 µM (inactive)

Question: And the AC50 [2]?
Answer: 0.817 µM (active)

Question: And the AC50 [3]?
Answer: 0.74 µM (active)

Question: And the AC50 [4]?
Answer: 47.5 µM (active)

Question: What about the AC50 (INS1) of the same molecule?
Answer: 0.759 µM (active)

Question: And the EC50 (HEK293 [5])?
Answer: 7.06 µM (active)

Question: And the EC50 [6]?
Answer: 0.279 µM (active)

Question: What about the EC50 [7] of the same molecule?
Answer: > 20 µM (inactive)

Question: What about the IC50 (HEK293 [8]) of the same molecule?
Answer: 4.18 µM (active)

Question: What about the IC50 (HEK293 [9]) of the same molecule?
Answer: 8.39 µM (active)

Question: What about the IC50 (HEK293 [10]) of the same molecule?
Answer: > 20 µM (inactive)

Question: What about the AC50 (HEK293 [11]) of the same molecule?
Answer: 0.515 µM (active)

Question: What about the IC50 [12] of the same molecule?
Answer: > 32 µM

Question: And the AC50 [13]?
Answer: 0.949 µM (active)

Question: And the IC50 [14]?
Answer: 36.8 µM (inactive)

Question: And the EC50 [15]?
Answer: 0.506 µM (active)

Question: And the IC50 [16]?
Answer: > 31.5 µM (inactive)

Question: And the EC50 [17]?
Answer: 2.06 µM (inconclusive)

Question: What about the EC50 (Beta-galactosidase) of the same molecule?
Answer: > 31.5 µM (inactive)

Question: Which EC50 [18] does the source give for Nc1c(Cl)cc(C2=NCCn3nc4ccccc4c32)cc1Cl here?
Answer: 3.99 µM (active)

Question: For CCCCCCCCCCOC(=O)Cn1c(COc2ccc(Cl)cc2)[n+](C)c2ccccc21, which IC50 (Prothrombin) is on record?
Answer: 44.6 µM (active)

Question: And the IC50 [19]?
Answer: 8.57 µM (active)

Question: And the AC50 [20]?
Answer: 7.08 µM (active)

Question: And the EC50 [21]?
Answer: > 120 µM (not active)

Question: And the AC50 [22]?
Answer: 7.94 µM (active)

Question: And the IC50 (Bcl-2-related protein A1)?
Answer: 10.1 µM (active)

Question: And the EC50 [23]?
Answer: 12.9 µM (active)

Question: What about the IC50 [24] of the same molecule?
Answer: 6.71 µM (active)

Question: What about the IC50 [25] of the same molecule?
Answer: > 100 µM (inactive)

Question: And the IC50 [26]?
Answer: 6.53 µM (active)

Question: What about the IC50 [27] of the same molecule?
Answer: 19.1 µM (active)

Question: With COc1ccc(Oc2c(Cl)cnn(CC(=O)OC(C)(C)C)c2=O)cc1 as the molecule, how does the IC50 [28] read?
Answer: ~19.9 µM (inactive)

Question: What about the IC50 [29] of the same molecule?
Answer: 14 µM (inactive)

Question: With CCOc1ccc(Oc2c(SC)cnn(Cc3cccc4ccccc34)c2=O)cc1 as the molecule, how does the IC50 [28] read?
Answer: 19.6 µM (inactive)

Question: And the IC50 [29]?
Answer: > 20 µM (inactive)
